Measured values: patent US20260224582A1, “Heterobicyclic amides as inhibitors of CD38” (Cerevance, Inc., priority 2022, published 2026)

How the values were obtained:
[1] = target: T1, Recombinant human CD38 (Homo sapiens, UniProt P28907); assay: Human CD38 hydrolase assay (fluorescence-based, ε-NAD substrate); assay type: biochemical; conditions: recombinant human CD38 0.8 nM, 4 μM ε-NAD, 30 min preincubation at 25° C.
T1 sequence (P28907 1-300): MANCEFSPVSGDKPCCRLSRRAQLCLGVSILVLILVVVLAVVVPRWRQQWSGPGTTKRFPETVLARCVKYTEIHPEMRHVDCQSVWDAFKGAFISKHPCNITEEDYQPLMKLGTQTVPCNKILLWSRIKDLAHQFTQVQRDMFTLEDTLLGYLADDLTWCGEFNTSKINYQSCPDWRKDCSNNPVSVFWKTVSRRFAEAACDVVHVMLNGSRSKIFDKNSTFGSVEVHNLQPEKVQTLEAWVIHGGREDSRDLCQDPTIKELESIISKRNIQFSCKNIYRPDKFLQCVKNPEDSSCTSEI
Protocol: The ability of test compounds to inhibit human CD38 hydrolase activity was measured in a fluorescence-based assay using non-physiological NAD^+ substrate analogue 1,N^6-etheno NAD^+ (ε-NAD). Recombinant human CD38 (0.8 nM) was preincubated with test compounds in 384-well black microplates for 30 min at 25° C. in PBS (—Ca^2+/Mg^2+) containing 0.005% BSA (pH 7.4). CD38 hydrolase activity was initiated by addition of 4 μM ε-NAD, which yields the fluorescent product 1,N^6-etheno ADP-ribose. Formation of fluorescent product was followed using ClarioStar Plus (BMG) microplate reader by reading fluorescence (excitation λ=300 nm; emission λ=410 nm) at two time points, one immediately after substrate addition (t=0) and one at 10 min (t=10). Data was analysed by subtracting the values detected at t=0 from t=10 to correct for variation in baseline fluorescence. Fluorescence values were converted to percent inhibition using the average of high signal (CD38 and ε-NAD) and low signal (CD38 and ε-NAD in the presence of a tool CD38 inhibitor) control wells. IC50 values were determined from a 10-point, half log concentration response curve with a four-parameter logistic equation.

[2] = target: T2, Recombinant mouse CD38 (Mus musculus, UniProt P56528); assay: Mouse CD38 hydrolase assay (fluorescence-based, ε-NAD substrate); assay type: biochemical; conditions: recombinant mouse CD38 0.4 nM, 12 μM ε-NAD, 30 min preincubation at 25° C.
T2 sequence (P56528 1-304): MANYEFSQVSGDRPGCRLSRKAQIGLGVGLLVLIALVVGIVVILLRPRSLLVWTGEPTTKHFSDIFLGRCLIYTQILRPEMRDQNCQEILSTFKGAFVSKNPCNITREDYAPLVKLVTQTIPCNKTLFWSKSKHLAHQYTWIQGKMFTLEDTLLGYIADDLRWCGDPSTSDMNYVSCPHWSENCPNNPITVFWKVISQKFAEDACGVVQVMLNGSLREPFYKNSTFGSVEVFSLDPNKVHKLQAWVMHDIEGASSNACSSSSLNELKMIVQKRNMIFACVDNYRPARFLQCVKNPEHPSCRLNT
Protocol: The ability of test compounds to inhibit mouse CD38 hydrolase activity was measured in a fluorescence-based assay using non-physiological NAD^+ substrate analogue 1,N^6-etheno NAD^+ (&-NAD). Recombinant mouse CD38 (0.4 nM) was preincubated with test compounds in 384-well black microplates for 30 min at 25° C. in PBS (—Ca^2+/Mg^2+) containing 0.005% BSA (pH 7.4). CD38 hydrolase activity was initiated by addition of 12 μM ε-NAD, which yields the fluorescent product 1,N^6-etheno ADP-ribose. Formation of fluorescent product was followed using ClarioStar Plus (BMG) microplate reader by reading fluorescence (excitation λ=300 nm; emission λ=410 nm) at two time points, one immediately after substrate addition (t=0) and one at 6 min (t=6).
Data was analysed by subtracting the values detected at t=0 from t=6 to correct for variation in baseline fluorescence. Fluorescence values were converted to percent inhibition using the average of high signal (CD38 and ε-NAD) and low signal (CD38 and ε-NAD in the presence of a tool CD38 inhibitor) control wells. IC50 values were determined from a 10-point, halflog concentration response curve with a four-parameter logistic equation.

Row | SMILES | IC50 [1] | IC50 [2]
1 | O=C(NC1CC2(CC(NCC(F)(F)F)C2)C1)c1nc(-n2ccnc2)nn2cccc12 (single isomer, unassigned) [Example 9, 2-(1H-imidazol-1-yl)-N-(6-((2,2,2-trifluoroethyl)amino)spiro[3.3]heptan-2-yl)pyrrolo[2,1-f][1,2,4]triazine-4-carboxamide] | ≤ 0.04 µM | ≤ 0.04 µM
2 | O=C(NC1CC2(CC(NCC(F)(F)F)C2)C1)c1nc(-n2ccnc2)nn2cccc12 (single isomer, unassigned) [Example 10, 2-(1H-imidazol-1-yl)-N-(6-((2,2,2-trifluoroethyl)amino)spiro[3.3]heptan-2-yl)pyrrolo[2,1-f][1,2,4]triazine-4-carboxamide] | ≤ 0.04 µM | ≤ 0.04 µM
3 | O=C(NC1CCOCC1)c1nc(-n2ccnc2)cc2nccn12 [Example 1, 7-(1H-imidazol-1-yl)-N-(tetrahydro-2H-pyran-4-yl) imidazo[1,2-c]pyrimidine-5-carboxamide] | ≤ 0.1 µM | ≤ 0.04 µM
4 | O=C(N[C@H]1CC[C@H](NCC(F)(F)F)CC1)c1nc(-n2ccnc2)cc2nccn12 [Example 2, 7-(1H-imidazol-1-yl)-N-((1r,4r)-4-((2,2,2-trifluoroethyl)amino)cyclohexyl) imidazo[1,2-c]pyrimidine-5-carboxamide] | ≤ 0.04 µM | ≤ 0.04 µM
5 | O=C(NC1CCOCC1)c1nc(-n2ccnc2)nc2ncccc12 [Example 3, 2-(1H-imidazol-1-yl)-N-(tetrahydro-2H-pyran-4-yl)pyrido[2,3-d]pyrimidine-4-carboxamide] | ≤ 0.04 µM | ≤ 0.04 µM
6 | O=C(N[C@H]1CC[C@H](NCC(F)(F)F)CC1)c1nc(-c2cncs2)cn2cccc12 [Example 5, 3-(thiazol-5-yl)-N-((1r,4r)-4-((2,2,2-trifluoroethyl)amino)cyclohexyl)pyrrolo[1,2-a]pyrazine-1-carboxamide] | ≤ 1 µM | ≤ 0.04 µM
7 | O=C(N[C@H]1CC[C@H](NCC(F)(F)F)CC1)c1cc2cccnc2c(-n2ccnc2)n1 [Example 6, 8-(1H-imidazol-1-yl)-N-((1r,4r)-4-((2,2,2-trifluoroethyl)amino)cyclohexyl)-1,7-naphthyridine-6-carboxamide] | ≤ 10 µM | 
8 | O=C(N[C@H]1CC[C@H](NCC(F)(F)F)CC1)c1cc2cccnc2c(-c2cncs2)n1 [Example 7, 8-(thiazol-5-yl)-N-((1r,4r)-4-((2,2,2-trifluoroethyl)amino)cyclohexyl)-1,7-naphthyridine-6-carboxamide] | ≤ 1 µM | ≤ 0.04 µM
9 | O=C(NC1CCC2(CC1)CN(CC(F)(F)F)C2)c1nc(-n2ccnc2)nn2cccc12 [Example 8, 2-(1H-imidazol-1-yl)-N-(2-(2,2,2-trifluoroethyl)-2-azaspiro[3.5]nonan-7-yl)pyrrolo[2,1-f][1,2,4]triazine-4-carboxamide] | ≤ 0.04 µM | ≤ 0.04 µM
10 | O=C(N[C@H]1C[C@H](NCC(F)(F)F)C1)c1nc(-n2ccnc2)nn2cccc12 [Example 11, 2-(1H-imidazol-1-yl)-N-((1r,3r)-3-((2,2,2-trifluoroethyl)amino)cyclobutyl)pyrrolo[2,1-f][1,2,4]triazine-4-carboxamide] | ≤ 0.04 µM | ≤ 0.04 µM
11 | O=C(N[C@H]1CC[C@H](NCC(F)(F)F)CC1)c1cn2cccc2c(-n2ccnc2)n1 [Example 15, 1-(1H-imidazol-1-yl)-N-((1r,4r)-4-((2,2,2-trifluoroethyl)amino)cyclohexyl)pyrrolo[1,2-a]pyrazine-3-carboxamide] | ≤ 0.04 µM | ≤ 0.04 µM
12 | O=C(N[C@H]1CC[C@H](NCC(F)(F)F)CC1)c1nc(-n2ccnc2)c2cccn2n1 [Example 16, 4-(1H-imidazol-1-yl)-N-((1r,4r)-4-((2,2,2-trifluoroethyl)amino)cyclohexyl)pyrrolo[2,1-f][1,2,4]triazine-2-carboxamide] | ≤ 1 µM | ≤ 0.04 µM
13 | Cn1cncc1-c1nc(C(=O)N[C@H]2CC[C@H](NCC(F)(F)F)CC2)c2cccn2n1 [Example 17, 2-(1-methyl-1H-imidazol-5-yl)-N-((1r,4r)-4-((2,2,2-trifluoroethyl)amino)cyclohexyl)pyrrolo[2,1-f][1,2,4]triazine-4-carboxamide] | ≤ 0.04 µM | ≤ 0.04 µM
14 | O=C(N[C@H]1CC[C@H](NCC(F)(F)F)CC1)c1nc(-c2cncn2CCO)nn2cccc12 [Example 18, 2-(1-(2-hydroxyethyl)-1H-imidazol-5-yl)-N-((1r,4r)-4-((2,2,2-trifluoroethyl)amino)cyclohexyl)pyrrolo[2,1-f][1,2,4]triazine-4-carboxamide] | ≤ 0.04 µM | ≤ 0.04 µM
15 | O=C(N[C@H]1CC[C@H](N2CC[C@H](F)C2)CC1)c1cn2cccc2c(-n2ccnc2)n1 [Example 22, N-((1S,4r)-4-((S)-3-fluoropyrrolidin-1-yl)cyclohexyl)-1-(1H-imidazol-1-yl)pyrrolo[1,2-a]pyrazine-3-carboxamide] | ≤ 1 µM | ≤ 0.04 µM
16 | O=C(N[C@H]1CC[C@H](N2CC[C@H](O)C2)CC1)c1nc(-n2ccnc2)nn2cccc12 [Example 23, N-((1S,4r)-4-((S)-3-hydroxypyrrolidin-1-yl)cyclohexyl)-2-(1H-imidazol-1-yl)pyrrolo[2,1-f][1,2,4]triazine-4-carboxamide] | ≤ 0.04 µM | ≤ 0.04 µM
17 | O=C(N[C@H]1CC[C@H](N2CC[C@@H](F)C2)CC1)c1cn2cccc2c(-n2ccnc2)n1 [Example 24, N-((1R,4r)-4-((R)-3-fluoropyrrolidin-1-yl)cyclohexyl)-1-(1H-imidazol-1-yl)pyrrolo[1,2-a]pyrazine-3-carboxamide] | ≤ 1 µM | ≤ 0.04 µM
18 | O=C(N[C@H]1CC[C@H](N2CC[C@H](F)C2)CC1)c1cn2ncnc2c(-n2ccnc2)n1 [Example 25, N-((1S,4r)-4-((S)-3-fluoropyrrolidin-1-yl)cyclohexyl)-8-(1H-imidazol-1-yl)-[1,2,4]triazolo[1,5-a]pyrazine-6-carboxamide] | ≤ 1 µM | ≤ 0.04 µM
19 | O=C(N[C@H]1CC[C@H](N2CC[C@@H](F)C2)CC1)c1cn2ncnc2c(-n2ccnc2)n1 [Example 26, N-((1R,4r)-4-((R)-3-fluoropyrrolidin-1-yl)cyclohexyl)-8-(1H-imidazol-1-yl)-[1,2,4]triazolo[1,5-a]pyrazine-6-carboxamide] | ≤ 0.1 µM | ≤ 0.04 µM
20 | O=C(N[C@H]1CC[C@H](N2CCC(F)(F)C2)CC1)c1cn2nccc2c(-n2ccnc2)n1 [Example 34, N-((1r,4r)-4-(3,3-difluoropyrrolidin-1-yl)cyclohexyl)-4-(1H-imidazol-1-yl)pyrazolo[1,5-a]pyrazine-6-carboxamide] | ≤ 1 µM | 
21 | O=C(N[C@H]1CC[C@H](N2CCCC2)CC1)c1nc(-n2ccnc2)nn2cccc12 [Example 43, 2-(1H-imidazol-1-yl)-N-((1r,4r)-4-(pyrrolidin-1-yl)cyclohexyl)pyrrolo[2,1-f][1,2,4]triazine-4-carboxamide] | ≤ 0.04 µM | 
22 | O=C(N[C@H]1CC[C@H](N2CCOCC2)CC1)c1cn2ncnc2c(-n2ccnc2)n1 [Example 49, 8-(1H-imidazol-1-yl)-N-((1r,4r)-4-morpholinocyclohexyl)-[1,2,4]triazolo[1,5-a]pyrazine-6-carboxamide] | ≤ 1 µM | 
23 | O=C(N[C@H]1CC[C@H](NCC(F)(F)F)CC1)c1cc2ncnn2c(-n2ccnc2)n1 [Example 60, 5-(1H-imidazol-1-yl)-N-((1r,4r)-4-((2,2,2-trifluoroethyl)amino)cyclohexyl)-[1,2,4]triazolo[1,5-c]pyrimidine-7-carboxamide] | ≤ 1 µM | 
